Patent US9696296B2, “Targeting c-Rel O-GlcNAcylation and uses thereof” (California Institute of Technology, priority 2013, dated 2017)

Experiments:
Assay type in all cases: cell-based, human
Jurkat cells = assay: anti-CD3/CD28-induced c-Rel dependent gene expression by quantitative real time PCR
Experimental: Jurkat cells were treated with PUGNAc (100 μM) for 12 hours and then treated with plate bound anti-CD3/CD28 (2 μg/ml) for 3 hours. Some cells were additionally treated overnight with Streptozotocin (STZ, 2 mM) prior to PUGNAc treatment. Gene expression was analyzed by quantitative real time PCR. In other cases, Jurkat T-REx cell clones expressing wild-type and mutant c-Rel were induced with doxycycline for 22 hrs, treated with PUGNAc overnight and then treated with anti-CD3/C28 for 3 hrs.
DNA-free RNA was prepared using the RNeasy Mini Kit according to the manufacturer's instructions (Qiagen). cDNA was synthesized from 0.5-1.0 μg total RNA using random hexamers (Promega) and Superscript III reverse transcriptase first-strand synthesis kit (Invitrogen, Carlsbad, Calif.). Quantitative real time PCR using cDNA corresponding to 20-60 ng of total RNA and Taqman Gene Expression Assays (Applied Biosystems, Foster City, Calif.) was performed in a Real-Time PCR machine (Realplex, Eppendorf) according to the manufacturer's instructions. The results obtained for individual genes were normalized to the expression of TFR for human genes and UBE2D2 for mouse genes. Quantitative real time PCR (qPCR) was performed at least in three independent experiments in triplicates and the relative levels of indicated genes were calculated with respect to the expression of transferrin receptor. Statistical significance was determined by two-tailed unpaired Student's t test and represented as mean±SEM.

[1] = tested on: c-Rel binding CD28RE region; assay: Electrophoretic mobility shift assay, anti-CD3/CD28-induced binding of nuclear extracts to CD28RE probe
Experimental: Jurkat cells were cultured at 1.5×10^6 cells/ml in 6-well plates or 10 cm plates in the presence of 1 μg/ml of Doxycycline for 22 hours for the induction of FLAG-c-Rel. Cells were stimulated for the indicated time points (3 hours) with plate bound anti-CD3 and anti-CD28 (2 μg/ml each). […] PLCγ, Lamin and SP1 were used as loading controls. Cytoplasmic and nuclear extracts were also prepared after culturing in the presence of 1 μg/ml of Doxycycline for 22 hours for the induction of FLAG-c-Rel. FLAG-c-Rel was immunoprecipitated and analyzed with anti-O-GlcNAc antibody.
Nuclear protein extracts were prepared as described^7. Nuclear extracts corresponding to 4-6 μg of protein were tested for DNA binding using the probes containing c-Rel binding CD28RE region and p65 binding IL2-κB region. OCT1 probe was used as a control. In the probe containing CD28RE-NF-IL-2B AP-1 region, the AP site was mutated as previously described to restrict the protein binding only to the CD28RE site in our assays. (Shapiro et al. Mol Cell Biol 17:4051-4058 (1997).) Lysates were incubated with [^32P] γATP labeled probe in the binding buffer (Tris-Cl 10 mM, pH 7.5, Nacl 50 mM, glycerol 4%, MgCl2 1 mM, EDTA 0.1 mM, poly(dI-dC) 50 μg/ml, and 0.1 mM DTT) for 20 min at room temperature. […] Samples were separated in 5% non-denaturing polyacrylamide gel and analyzed by autoradiography.

p65 = assay: TNF-induced nuclear translocation assay, p65; conditions: Jurkat cells, PUGNAc overnight then TNF
Experimental: (§1) Jurkat cells were treated overnight with PUGNAc and then with TNF. Nuclear extracts were analyzed for c-Rel and p65 nuclear translocation. p105 was used as the loading control.

c-Rel [2] = assay: TNF-induced nuclear translocation assay, c-Rel; conditions: Jurkat cells, PUGNAc overnight then TNF
Experimental: as §1

c-Rel [3] = assay: c-Rel O-GlcNAcylation, immunoprecipitation and anti-O-GlcNAc western blot; conditions: Jurkat cells, 30 mM glucose, PUGNAc 100 μM for 3 hrs
Jurkat T-REx cell clones = assay: TNF-induced NF-κB-dependent gene expression by qPCR; conditions: TNF 100 ng/ml 3 hrs, PUGNAc overnight
Experimental: Cells were treated with TNF (100 ng/ml) for 3 hrs. Jurkat T-REx cell clones expressing wild-type and mutant c-Rel were induced with doxycycline for 22 hrs, treated with PUGNAc overnight and then treated with anti-CD3/C28 for 3 hrs. Quantitative real time PCR (qPCR) was performed at least in three independent experiments in triplicates and the relative levels of indicated genes were calculated with respect to the expression of transferrin receptor. Statistical significance was determined by two-tailed unpaired Student's t test and represented as mean±SEM.

[4] = Jurkat cells, PUGNAc 100 μM 12 hours, then anti-CD3/CD28 3 hours

`CN(N=O)C(=O)N[C@H]1C(O)O[C@H](CO)[C@@H](O)[C@@H]1O` (mixture of isomers) [Streptozotocin] was tested, and the “anti-CD3/CD28-induced c-Rel-dependent gene expression (GMCSF)” value (Jurkat cells; STZ 2 mM overnight) was “enhanced”.

For `[N-]=[N+]=CC(=O)CC[C@H](N)C(=O)O` [DON, 6-diazo-5-oxo-L-norleucine], the “anti-CD3/CD28-induced CD28RE binding of nuclear extracts” value ([1]; wild-type c-Rel expressing Jurkat cells, DON overnight) was “decreased”.

`CC(=O)N[C@H]1/C(=N/OC(=O)Nc2ccccc2)O[C@H](CO)[C@@H](O)[C@@H]1O` [PUGNAc, O-(2-acetamido-2-deoxy-D-glucopyranosylidene)amino-N-phenylcarbamate] was tested, and the “TNF-induced nuclear p65 levels” value (p65) was “decreased”, the “expression of c-Rel-dependent genes in wild-type versus mutant c-Rel cells” value (Jurkat cells; Jurkat T-REx clones expressing wild-type or S350A c-Rel, PUGNAc overnight, anti-CD3/CD28 3 hrs) was “significantly potentiated the expression of c-Rel-dependent genes only in wild-type c-Rel expressing cells” and the “anti-CD3/CD28-induced expression of GMCSF” value (Jurkat cells; [4]) was “significantly potentiated”. For the same compound, the “anti-CD3/CD28-induced expression of IL-2” value (Jurkat cells; [4]) was “significantly potentiated”, the “TCR-induced expression of A20 and IκBα” value (Jurkat cells; PUGNAc treatment) was “did not observe any effect” and the “TNF induced c-Rel nuclear translocation” value (c-Rel [2]) was “no effect”. For the same compound, the “O-GlcNAcylation of c-Rel” value (c-Rel [3]) was “further enhanced the O-GlcNAcylation of c-Rel”, the “anti-CD3/CD28-induced CD28RE DNA binding” value ([1]; PUGNAc and high glucose treatment) was “significantly increased” and the “TNF-induced expression of A20” value (Jurkat T-REx cell clones) was “neither affected”. For the same compound, the “TNF-induced expression of IκBα” value (Jurkat T-REx cell clones) was “neither affected”.
